The supplement of paper PMC13380429

Columns and labels:
Settings in all cases: 72 h
Vero E6 [1] = experiment: cell viability relative to DMSO; higher = less toxic
Calu-3 [2] = experiment: as above
Caco-2 [3] = experiment: as above
HepG2 [4] = experiment: as above
U2OS [5] = experiment: as above
Vero E6 [6] = experiment: drug sensitivity score (DSS) for viability; higher = more toxic; extreme values may be limits of the assay
Calu-3 [7] = experiment: as above
Caco-2 [8] = experiment: as above
HepG2 [9] = experiment: as above
U2OS [10] = experiment: as above
Vero E6 [11] = experiment: relative viability EC50 (midpoint between 100% and the lowest measured viability); higher = less toxic
Calu-3 [12] = experiment: as above
Caco-2 [13] = experiment: as above
HepG2 [14] = experiment: as above
U2OS [15] = experiment: as above

SMILES | cell viability (Vero E6 [1]; 1 nM) | cell viability (Vero E6 [1]; 10 nM) | cell viability (Vero E6 [1]; 100 nM) | cell viability (Vero E6 [1]; 1000 nM) | cell viability (Vero E6 [1]; 10000 nM) | cell viability (Calu-3 [2]; 1 nM) | cell viability (Calu-3 [2]; 10 nM) | cell viability (Calu-3 [2]; 100 nM) | cell viability (Calu-3 [2]; 1000 nM) | cell viability (Calu-3 [2]; 10000 nM) | cell viability (Caco-2 [3]; 1 nM) | cell viability (Caco-2 [3]; 10 nM) | cell viability (Caco-2 [3]; 100 nM) | cell viability (Caco-2 [3]; 1000 nM) | cell viability (Caco-2 [3]; 10000 nM) | cell viability (HepG2 [4]; 1 nM) | cell viability (HepG2 [4]; 10 nM) | cell viability (HepG2 [4]; 100 nM) | cell viability (HepG2 [4]; 1000 nM) | cell viability (HepG2 [4]; 10000 nM) | cell viability (U2OS [5]; 1 nM) | cell viability (U2OS [5]; 10 nM) | cell viability (U2OS [5]; 100 nM) | cell viability (U2OS [5]; 1000 nM) | cell viability (U2OS [5]; 10000 nM) | drug sensitivity score (Vero E6 [6]) | drug sensitivity score (Calu-3 [7]) | drug sensitivity score (Caco-2 [8]) | drug sensitivity score (HepG2 [9]) | drug sensitivity score (U2OS [10]) | relative viability EC50 (Vero E6 [11]) | relative viability EC50 (Calu-3 [12]) | relative viability EC50 (Caco-2 [13]) | relative viability EC50 (HepG2 [14]) | relative viability EC50 (U2OS [15])
O=C(CCCCC(=O)Nc1c(I)cc(I)c(C(=O)O)c1I)Nc1c(I)cc(I)c(C(=O)O)c1I [iodipamide] | 102% | 99.2% | 101% | 98.6% | 103% | 98% | 104% | 93.6% | 101% | 101% | 106% | 106% | 97.1% | 95.3% | 102% | 96% | 93.3% | 97.6% | 101% | 103% | 96.2% | 103% | 97.7% | 95.1% | 97.9% | 0 | 0 | 0 | 0 | 0 | > 10 µM | > 10 µM | > 10 µM | > 10 µM | > 10 µM
OB1OCc2cc(Cl)ccc21 [AN2718] | 101% | 99.8% | 94.7% | 96.9% | 103% | 100% | 89% | 90.6% | 102% | 92.8% | 93.8% | 102% | 82.2% | 98.8% | 82.7% | 120% | 107% | 107% | 94% | 108% | 101% | 98% | 96.1% | 98.2% | 98.7% | 0 | 0 | 0.4 | 0 | 0 | > 10 µM | > 10 µM | > 10 µM | > 10 µM | > 10 µM
CCC(C(=O)O)c1ccc(CC(C)C)cc1 (stereo not drawn) [butibufen] | 93.3% | 92.5% | 87.6% | 95.9% | 105% | 97.1% | 105% | 99.9% | 113% | 105% | 102% | 92.8% | 103% | 94.4% | 99.3% | 107% | 101% | 99% | 110% | 106% | 97.4% | 95.5% | 97.9% | 102% | 104% | 0 | 0 | 0 | 0 | 0 | > 10 µM | > 10 µM | > 10 µM | > 10 µM | > 10 µM
CCOC(=O)Nc1cc2c(c(N)n1)N=C(c1ccccc1)[C@H](C)N2 [mivobulin] | 94.3% | 20.2% | 8.2% | 9.9% | 13.5% | 95.7% | 65.2% | 37.5% | 40.7% | 42.7% | 103% | 52.5% | 48.7% | 47.3% | 42.2% | 99.6% | 42.9% | 24.1% | 21.5% | 22.9% | 95.7% | 38.6% | 20.7% | 23.3% | 21.9% | 38.5 | 23.7 | 23.8 | 31.1 | 32.4 | 0.0039 µM | 0.0083 µM | 0.0055 µM | 0.0067 µM | 0.005 µM
NC1=N[C@@]2(c3cc(NC(=O)c4ccc(F)cn4)ccc3F)COC[C@H]2CS1 | 95.5% | 97.2% | 94.3% | 99.4% | 102% | 103% | 96.5% | 93.4% | 93.1% | 98.5% | 94.8% | 93.7% | 101% | 86% | 103% | 99.9% | 110% | 93.4% | 112% | 105% | 98.6% | 94.6% | 101% | 98.4% | 100% | 0 | 0 | 0 | 0 | 0 | > 10 µM | > 10 µM | > 10 µM | > 10 µM | > 10 µM
N#Cc1c[nH]c2c(C(=O)N3CCN(CCc4ccc(F)cc4)CC3)cccc12 [pruvanserin] | 105% | 86.8% | 102% | 95.2% | 98.4% | 91.8% | 112% | 91.4% | 112% | 101% | 94.9% | 95.3% | 96.9% | 98.1% | 95.7% | 103% | 110% | 117% | 98.1% | 99.3% | 94% | 98.4% | 92.5% | 104% | 100% | 0 | 0 | 0 | 0 | 0 | > 10 µM | > 10 µM | > 10 µM | > 10 µM | > 10 µM
CC1(C)S[C@@H]2[C@H](NC(=O)C(C(=O)O)c3ccccc3)C(=O)N2[C@H]1C(=O)O (stereo partly drawn) [carbenicillin] | 102% | 100% | 102% | 95.7% | 95.7% | 105% | 98.3% | 103% | 105% | 99.9% | 104% | 106% | 92.5% | 93.9% | 94.9% | 97.2% | 100% | 103% | 103% | 98% | 103% | 102% | 98.8% | 102% | 96% | 0 | 0 | 0 | 0 | 0 | > 10 µM | > 10 µM | > 10 µM | > 10 µM | > 10 µM
COc1ccc(CN(C(=O)[C@@H](N)Cc2c(C)cc(C(N)=O)cc2C)[C@@H](C)c2ncc(-c3ccccc3)[nH]2)cc1C(=O)O [eluxadoline] | 104% | 101% | 94.5% | 98.2% | 103% | 96.6% | 105% | 95.1% | 118% | 101% | 94.1% | 98.2% | 97.6% | 98.5% | 113% | 99.6% | 95.4% | 97.1% | 99.9% | 105% | 91.5% | 98.3% | 96.1% | 100% | 98% | 0 | 0 | 0 | 0 | 0 | > 10 µM | > 10 µM | > 10 µM | > 10 µM | > 10 µM
Nc1nc(F)nc2c1ncn2[C@@H]1O[C@H](CO)[C@@H](O)[C@@H]1O [fludarabine] | 93.9% | 95.2% | 92.8% | 99.4% | 101% | 111% | 88.9% | 95.2% | 87.6% | 87.5% | 94.1% | 104% | 102% | 99.9% | 102% | 103% | 95.6% | 95.2% | 95.6% | 79.4% | 98.8% | 102% | 98.6% | 102% | 103% | 0 | 0.7 | 0 | 1.1 | 0 | > 10 µM | > 10 µM | > 10 µM | > 10 µM | > 10 µM
O=C(O)Cc1ccc2c(c1)C(=O)c1ccccc1CO2 [isoxepac] | 98.3% | 97.5% | 101% | 101% | 100% | 96.9% | 97.9% | 98.5% | 101% | 98.5% | 94.7% | 102% | 109% | 100% | 93.6% | 99.1% | 103% | 97.5% | 101% | 91.2% | 102% | 95.4% | 101% | 98.3% | 101% | 0 | 0 | 0 | 0 | 0 | > 10 µM | > 10 µM | > 10 µM | > 10 µM | > 10 µM
CC(C)[C@@H](C)/C=C/[C@@H](C)[C@H]1CC[C@H]2/C(=C/C=C3\C[C@@H](O)CC[C@@H]3C)CCC[C@]12C [dihydrotachysterol] | 101% | 100% | 98.1% | 102% | 110% | 97.4% | 99.7% | 97.7% | 99.6% | 97.7% | 108% | 96% | 100% | 104% | 103% | 92.8% | 94.3% | 95.8% | 93.2% | 106% | 104% | 93.1% | 101% | 99.3% | 100% | 0 | 0 | 0 | 0 | 0 | > 10 µM | > 10 µM | > 10 µM | > 10 µM | > 10 µM
CCCc1c(OCCCCc2nnn[nH]2)ccc(C(C)=O)c1O [tomelukast] | 94.5% | 98.5% | 107% | 96.6% | 106% | 87.4% | 105% | 107% | 102% | 104% | 88.9% | 93.9% | 97.8% | 105% | 97.6% | 95.6% | 90.3% | 94.5% | 82.9% | 84.8% | 94.9% | 103% | 98.1% | 99.7% | 99.6% | 0 | 0 | 0 | 1.5 | 0 | > 10 µM | > 10 µM | > 10 µM | > 10 µM | > 10 µM
CC(C)(C)c1ccc(CN2CCN(C(c3ccccc3)c3ccc(Cl)cc3)CC2)cc1 (stereo not drawn) [buclizine] | 103% | 102% | 101% | 98.2% | 95.9% | 95.1% | 98.3% | 94.6% | 87.1% | 92.1% | 108% | 98.3% | 100% | 98.3% | 87.5% | 95.7% | 106% | 99.6% | 91.3% | 73.5% | 96.7% | 97.6% | 96.8% | 98.9% | 90.8% | 0 | 0 | 0.2 | 2.2 | 0 | > 10 µM | > 10 µM | > 10 µM |  | > 10 µM
COc1ccc2nc(NC(=O)Nc3ccccc3)sc2c1 [frentizole] | 100% | 105% | 98.6% | 97.1% | 97.5% | 110% | 99.4% | 93.7% | 107% | 91.1% | 103% | 98.3% | 88% | 88.2% | 87.9% | 101% | 105% | 93.8% | 89.7% | 56.8% | 95.7% | 97.2% | 97% | 95% | 95.3% | 0 | 0 | 1.2 | 3.7 | 0 | > 10 µM | > 10 µM | > 10 µM |  | > 10 µM
